Laboratory results from patent publication US11180499B2, “Phosphodiesterase inhibitors” (BOARD OF REGENTS OF THE UNIVERSITY OF NEBRASKA, priority 2018, dated 2021).

What was measured:
PDE4B = target: T1, PDE4B (Homo sapiens, UniProt Q07343); assay: In vitro PDE4 inhibition study, PDE4B (BPS Bioscience); assay type: binding
T1 construct: purchased BPS Bioscience, San Diego
Description: The IC50 values of Compound 8 on PDE4 isoforms were determined by BPS Bioscience, San Diego. In brief, coat proteins (PDE4 isoforms) were added into the plate in a volume of 50 μl (2-5 ng/μl) at 4° C. overnight. The next day, Compound 8 was added to the coated plate with varying concentrations followed by addition of the corresponding biotinylated binding partner. The reaction was incubated for 2 hours at room temperature. Binding assays were performed in duplicate at each concentration and the plates were read by using Synergy 2 BioTek plate reader. The luminescence data were analyzed using the Graphpad Prism. […] Data for a reference compounds or antibodies are included as a control for inhibition. “ND” indicates the compound was not tested.

WT mice = assay: Locomotor analysis (cocaine-induced hyperlocomotion, open field); assay type: in vivo, mouse; details: for Locomotor activity of compound alone: Compound 8 + saline
Description: Locomotor analysis: WT mice (both gender, n=6-8) were divided into four groups receiving various treatments: (1) vehicle+saline; (2) vehicle+cocaine; (3) Compound 8+saline; and (4) Compound 8+cocaine. Cocaine was administered at 20 mg/kg (i.p.) and Compound 8 was used at two different doses 5 or 10 mg/kg (i.p.). Compound 8 was firstly injected into the mice and 30 min later followed with cocaine administration. To investigate the effects of Compound 8 on acute locomotor response, immediately following cocaine injection, mice were put into the open field apparatus (Truescan, Coulbourn instrument) to detect locomotor activity for 45 min. The TruScan photobeam activity system consists of a clear arena with infrared sensors located on a ring 3 cm above floor level. There are 16 beams spaced 1 inch apart on the sensor ring that are used to detect movements by mice. […] To investigate the effects of Compound 8 on locomotor sensitization, mice were repeatedly injected with Compound 8 and cocaine for 7 consecutive days and the locomotor responses were recorded every other day.

[1] = system: cocaine self-administered mice; assay: Cocaine self-administration (seeking and taking behavior); assay type: in vivo, mouse; details: i.p., 30 min before 2 h FR1 session
Description: (a) Surgery procedure: WT mice (10-12 weeks, both genders) were implanted with permanently indwelling catheters (Plastics one) into the right jugular vein under a combination of ketamine hydrochloride ([…], i. p.) and xylazine ([…], i.p.) anesthesia. The catheter is tied to the vein with surgical silk and is passed subcutaneously to the back of the mouse where the catheter is affixed to a small plastic pedestal (26 G, Plastics One Company). After the surgery, the catheters were flushed daily with heparin (30 IU/mi) to avoid clotting. Mice were allowed at least 7 days of recovery in their home before the start of the experiments.
(b) The establishment of cocaine self-administered mice: Mice were individually put into sound-mitigation cubicles (Coulbourne Instrument) for the training of self-administered cocaine (1.0 mg/kg/infusion). […] A timeout period of 15 seconds followed each drug injection. All responses were recorded automatically using a computer interface and Graphic State Notation 4 software (Coulbourne Instrument). Mice were trained to self-administer cocaine during one daily session under a fixed ratio 1 (FR1) schedule. […]
(c) The effects of Compound 8 on cocaine-mediated seeking and taking behavior. […] The numbers of active nose-poke and cocaine infusions were recorded. […]

PDE4B1 = target: T2, PDE4B1 (Homo sapiens, UniProt Q07343); assay: Cell-based PDE4B assay (HEK293, PDE4B1 vector, CRE luciferase reporter, forskolin); details: versus apremilast
T2 construct: expressed in transfected cells; host or cells: HEK293
T2 sequence (Q07343 whole entry): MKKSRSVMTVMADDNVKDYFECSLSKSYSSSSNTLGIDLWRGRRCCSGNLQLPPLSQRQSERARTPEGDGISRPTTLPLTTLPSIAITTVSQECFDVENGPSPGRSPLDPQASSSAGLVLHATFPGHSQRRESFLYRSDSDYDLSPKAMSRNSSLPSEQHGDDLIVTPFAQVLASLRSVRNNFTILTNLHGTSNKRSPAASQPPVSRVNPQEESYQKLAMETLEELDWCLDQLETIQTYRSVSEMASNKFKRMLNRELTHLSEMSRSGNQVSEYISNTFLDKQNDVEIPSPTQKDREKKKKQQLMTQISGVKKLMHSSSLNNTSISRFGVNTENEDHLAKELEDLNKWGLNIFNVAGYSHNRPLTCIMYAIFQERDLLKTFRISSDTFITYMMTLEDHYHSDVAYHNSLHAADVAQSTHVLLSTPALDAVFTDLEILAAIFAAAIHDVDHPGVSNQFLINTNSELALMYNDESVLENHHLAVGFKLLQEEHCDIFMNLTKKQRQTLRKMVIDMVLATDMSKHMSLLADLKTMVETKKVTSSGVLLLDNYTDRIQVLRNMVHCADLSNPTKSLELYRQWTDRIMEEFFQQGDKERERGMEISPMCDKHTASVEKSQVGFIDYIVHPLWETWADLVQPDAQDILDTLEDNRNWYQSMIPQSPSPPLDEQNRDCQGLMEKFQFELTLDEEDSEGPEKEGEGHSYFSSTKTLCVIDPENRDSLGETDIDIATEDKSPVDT
Description: Cells were incubated at 37° C. and 5% CO2 overnight. […] Cell based assays were performed in triplicate at each concentration.

T1 sequence (Q07343 whole entry): as above

IC50 (PDE4B): 140 nM
EC50 for PDE4B inhibition relative to apremilast (PDE4B1): ten-fold lower EC50
SMILES: O=C(c1cc2cccnc2n1-c1ccc(Cl)c(Cl)c1)N1CC(F)(F)C1 [Compound 8, (1-(3,4-dichlorophenyl)-1H-pyrrolo[2,3-b]pyridin-2-yl)(3,3-difluoroazetidin-1-yl)methanone]
Cocaine-induced hyperlocomotion (WT mice; 5 or 10 mg/kg i.p. 30 min before cocaine 20 mg/kg i.p.): inhibited the cocaine induce hyperlocomotion
Locomotor activity of compound alone (WT mice): without any increase alone
Locomotor activity of compound alone (WT mice; listed as compound 8): without any increase by itself
Cocaine-mediated seeking and taking behavior (active nose-pokes, cocaine infusions) [1]: significantly decreased
